{"source": "patent US9193681B1", "about": "“Propionic acids, propionic acid esters, and related compounds” (Promentis Pharmaceuticals, Inc., priority 2014, dated 2015)", "key": {"[1]": {"test_system": "human glial cells from brain astrocytoma (1321N1)", "test": "14C-cystine uptake in human glial cell culture", "type": "cell-based", "conditions": "100 μM (most effective concentration); relative to untreated control; 1321N1 cells; three hour incubation", "description": "The screening of the compound was performed using an in vitro culture system of human glial cells from brain astrocytoma (1321N1). Cells were plated on 24 well plates coated with poly-D-lysine and laminin and grown in a balanced salt solution supplemented with 5% heat inactivated horse serum, 5% fetal bovine serum, 2 mM glutamine and glucose (total 21 mM). Cultures were maintained in humidified 5% CO2 incubators at 37° C. for 3-4 days before experiments were performed, at this time the cultures has formed a single confluent layer. For experiments, cultures are washed 3 times into a Na-free HEPES and HCO3^− buffered balanced salt solution. After 1 hour, the test compounds are added. Following a three hour incubation, ^14C-cystine (0.025 mCi/mL) was then added for 20 minutes. Following the ^14C-cystine exposure, cultures were washed 3 times with ice cold HEPES buffered saline solution and dissolved in 250 μl sodium dodecyl sulfate (0.1%). An aliquot (200 μl) was removed and added to scintillation fluid for counting. Values were normalized to ^14C-cystine uptake in untreated controls on the same experimental plate."}, "[2]": {"test_system": "human glial cells from brain astrocytoma (1321N1)", "test": "3H-glutamate release from human glial cell culture", "type": "cell-based", "conditions": "at 3 hours; 100 μM; relative to untreated control; 1321N1 cells", "description": "This assay also uses the cell culture system of human glial cells from brain astrocytoma (1321N1) described above. Initially, cells are washed, and ^3H-glutamate is added (PerkinElmer: 1 mCi/mL stock solution is diluted (30 μL+500 μL HBBSS) and 10 μL of diluted radiolabel is added to each well). Following a 1 hour incubation to load the cells with the labeled glutamate, the cells are washed again with HBBSS, and the drug is added. At 30, 90, and 180 minutes, 50 μL of extracellular media is sampled from each well and is measured using a Beckman LS 6500 scintillation counter."}, "[3]": {"test_system": "mixed cortical cell cultures containing glial and neuronal cells", "test": "In vitro thiol experiment: intracellular cysteine levels", "type": "cell-based, mice", "conditions": "100 μM", "description": "Mixed cortical cell cultures containing glial and neuronal cells were prepared from fetal (15-16 day gestation) mice as previously described. Lobner D, Comparison of the LDH and MTT assays for quantifying cell death: validity for neuronal apoptosis?, J Neurosci Methods, 2000, Mar. 15, 96(2), 147-152). Dissociated cortical cells were plated on 24-well plates coated with poly-D-lysine and laminin in Eagles' Minimal Essential Medium (MEM, Earle's salts, supplied glutamine-free) supplemented with 5% heat-inactivated horse serum, 5% fetal bovine serum, 2 mM glutamine and glucose (total 21 mM). Cultures were maintained in humidified 5% CO2 incubators at 37° C. […]\nSamples were then sonicated with a Fisher Scientific 60 Sonic Dismembrator. One fraction of this homogenate was analyzed with the Pierce BCA (bicinchoninic acid) method to determine protein concentration. The other fraction was filtered using 3 K molecular weight cutoff, polyethersulfone centrifugal protein filters, and analyzed for thiol content using high-performance liquid chromatography (ALF-115 column, 150×1.0 mm, 3 μm C18; mobile phase: 50 mM citric acid, 10 mM octanesulfonic acid, 2% acetonitrile, pH 2.8, 50 uL/min flow rate) with electrochemical detection (Decade II, Au working electrode, Flex Cell HyREF, 0.55V, Antec Leyden, Netherlands)."}, "rats [4]": {"test_system": "rats", "test": "Prepulse inhibition experiment (MK-801-induced deficit)", "type": "in vivo, rat", "conditions": "3 mg/kg P.O., MK-801 0.1 mg/kg SC, MK-801 plus vehicle control about 18%", "description": "Rats were placed on a platform in a sound attenuating chamber (10.875″×14″×19.5″; Hamilton Kinder, Calif.) that rested on a motion sensing plate. During all sessions, the background noise was held constant at 60 dB. A matching session was conducted to determine the magnitude of the average startle response for each rat. This session consisted of a five minute habituation period followed by 20 trials; 17 trials involved the presentation of a single auditory stimulus (pulse stimulus; 50 dB above the background noise) and three trials in which a pre-pulse stimulus (12 db above background) was presented 100 ms before the pulse auditory stimulus. Rats were then assigned into the various treatment groups so that the magnitude of the startle response was equivalent across all groups. Two days later, a testing session was conducted to assess sensorimotor gating. One hour prior to testing, rats received a prodrug (0-100 mg/kg, P.O.) and 55 minutes later acute MK-801 maleate (0.1 mg/kg, SC). […] All startle responses were normalized to vehicle control, and the percent of prepulse inhibition was determined as 100−(average prepulse startle response/average startle stimulus alone)*100."}, "rats [5]": {"test_system": "rats", "test": "Elevated-plus maze", "type": "in vivo, rat", "description": "Rats were tested in a standard elevated plus maze; testing occurred in a dimly illuminated room using only two lights mounted over the maze. Animals were allowed to habituate to the room for at least one hour prior to treatment. One hour prior to testing, rats received a Pro-4001 (0-30 mg/kg, P.O.). For testing, the rat was placed in the elevated plus maze for five minutes, alternating the starting position between facing an open arm and facing a closed arm. The session was recorded and an observer blind to treatment recorded the number of explorations, entries and time spent in the open arm. Explorations were defined as the rat placing two feet into an open arm without fully entering said arm. Entries were defined as the rat placing all four feet in an open arm. Time of entry in the open arm was recorded from the time the rat placed four feet in the open arm until two of the rats' feet entered the open square."}}, "data": [{"smiles": "CCOC(=O)[C@H](CSC(=O)[C@@H](N)C(C)C)NC(C)=O.Cl", "note": "[Pro-4001, ethyl (2R)-3-{[(2S)-2-amino-3-methylbutanoyl]sulfanyl}-2-acetamido-propanoate hydrochloride]", "values": [{"measurement": "decrease in 14C-cystine uptake", "setting": "[1]", "value": 50, "unit": "%"}, {"measurement": "increase in 3H-glutamate release", "setting": "[2]", "value": 175, "unit": "%"}, {"measurement": "intracellular cysteine concentration", "setting": "[3]", "value": 0.78, "unit": "µM"}, {"measurement": "intracellular cysteine concentration, times the control value", "setting": "[3]", "value": "approximately 5 times"}, {"measurement": "% prepulse inhibition", "setting": "rats [4]", "value": "about 27%"}, {"measurement": "increase of time spent on the open arm", "setting": "rats [5]; 10 mg/kg PO", "value": 50, "unit": "%"}, {"measurement": "time spent on the open arms", "setting": "rats [5]; 10 mg/kg PO", "value": "around 21 seconds"}, {"measurement": "increase of time spent on the open arm", "setting": "rats [5]; 30 mg/kg PO", "value": 64, "unit": "%"}, {"measurement": "time spent on the open arms", "setting": "rats [5]; 30 mg/kg PO", "value": "around 25 seconds"}]}]}
